From patent US4271189A, “Lithium derivatives of taurine having reinforced neuro-muscular activity” (Les Laboratoires Meram, priority 1977, dated 1981) come the findings set out here.

Data set [1] can be described thus: Acute toxicity (LD50) in the male mouse, intraperitoneal and oral routes. From the text: The acute toxicity of the compounds according to the invention was studied by the intraperitoneal route in the male mouse. The results obtained were as follows:
The value of lithium salts in the treatment of depressions and in particular of manic-depressive psychosis, is well-known. But the major disadvantage of this therapy resides in the toxicity of the currently known salts (carbonate, citrate, gluconate).

Data set [2] is described as follows: Neuro-muscular activity in the six pharmacological tests (summary). Type of data set: in vivo. Conditions: mouse and rat. On the procedure: (§1) 1. The investigation behaviour of the mouse was studied by the "Holed board" test (Boissier and Simon; Arch. Int. Pharmacodyn. 1964, 147, 3-4),
(§2) 2. The study of the spontaneous motility of the mouse was made by using Boissier's photoelectric actimeter.
(§3) 3. The study of the motility of the mice was also made by using Boissier's photoelectric actimeter, after amphetamine-acetyl-taurinate interaction according to the invention: the mice are treated simultaneously with 10 mg/kg (IP) of dextrorotatory amphetamine and with an optimal dose of acetyltaurinate.
(§4) 4. A study of the hypothermia in the mouse was effected by determining the rectal temperature of the mice 30 mins. before the intraperitoneal administration of the product, at the moment of this administration, then 30 mins., 1 hour, 2, 3 and 4 hrs. after the injection of the product.
(§5) 5. The study of the hypothermia after amphetamine-acetyl-taurinate interaction according to the invention was made according to the same method as previously in the mouse, the animals being treated simultaneously with 30 mg/kg (IP) of dextrorotatory amphetamine and with an optimal dose of the product to be tested.
(§6) 6. A test was also made of the appetite- and thirst-depressant activities in the rat.

The nature of data set [3]: Spontaneous motility of the mouse, Boissier's photoelectric actimeter. The class given is in vivo.
Text: as §2

Data set [4] is described as follows: Motility of mice after amphetamine-acetyl-taurinate interaction (photoelectric actimeter). Type of data set: in vivo. Conditions: mouse, with 10 mg/kg IP dextrorotatory amphetamine. The protocol:
as §3

The nature of data set [5]: Investigation behaviour of the mouse, "Holed board" test. Type of data set: in vivo.
Text: as §1

Data set [6] in a line: Minimum lethal dose by intravenous route in male rabbits. The class given is in vivo, male rabbit. The protocol: This reduction of acute toxicity was confirmed by the evaluation of the minimum lethal dose by intraveinous route in male rabbits, comparatively beween lithium citrate and lithium N-acetyltaurinate:
In the same experimental conditions, the minimum lethal dose is 42 mg of lithium with lithium citrate, and 204 mg lithium with lithium N-acetyltaurinate.

For data set [7] the following is noted: in vivo.
Data set [8] in a line: Hypothermia after amphetamine-acetyl-taurinate interaction in the mouse. Type of data set: in vivo. The protocol:
as §5

Data set [9] is described as follows: Hypothermia in the mouse (rectal temperature). Type of data set: in vivo. Conditions: for hypothermia / reduction in the rectal temperature: intraperitoneal. On the procedure: as §4
The nature of data set [10]: Test of morphinic agitation in mice. The class given is in vivo, mouse. The following applies: for effect type in the morphinic agitation test: 5-day treatment, 100, 500 and 2500 mg/Kg per os. From the text:
Furthermore, the neuro-muscular activity of the lithium N-acetyltaurinate has been evaluated in comparison with that of taurine and of the other salts of N-acetyltaurine, using the test of morphinic agitation.

The nature of data set [11]: Chronic toxicity in rats over three months, renal histology. The class given is in vivo, rat. The protocol:
A study of the chronic toxicity in rats was conducted comparatively between lithium N-acetyltaurinate and lithium carbonate:
For three months, rats received doses of 8 mg/Kg and 24 mg/Kg per day of lithium, first in the form or lithium carbonate, and in the form of lithium N-acetyltaurinate.

A short description of data set [12]: Appetite- and thirst-depressant activities in the rat. The class given is in vivo.
Text: as §6

Data set [13] in a line: Human observation: neuromuscular hyperexcitability. Type of data set: in vivo. An excerpt: The following observation is given by way of example: a person has been treated for 7 years for a neuromuscular hyperexcitability,with a wide range of neuro-vegetative disorders. They present critical phenomena of lipothymia type, anxious crises with paroxysmal tachycardia. They have had four grand mal epileptic crises.
(§7) A person . . . […] 2 suicide attempts. Predominance of psychomotive inhibition. […] a person . . .

A short description of data set [14]: Human observation: chronic alcoholism with predelirium. The class given is in vivo.
Text: as §7

Data set [15] can be described thus: Human observation: bipolar manic-depressive psychosis, lithemia and mood. The following applies: one patient.
Where [16] appears, read: listed as N-acetyl-taurinate of potassium.
Setting [17] is: listed as N-acetyl-taurinate of lithium.
[18] abbreviates: listed as N-acetyltaurinate of calcium.

Where a name gives a salt, the structure may show the parent alone. Read-outs that look alike come from different tables or passages of the source.

As usually defined, the LD50 is the dose expected to kill half of the subjects tested. As to `CC(=O)NCCS(=O)(=O)O` [Example 2, N-acetyl-taurinate of potassium], the LD50 in data set [1] (intraperitoneal route, male mouse, mg of compound, listed as N-acetyltaurinate of potassium) turned out to be 3234 mg/kg; in [1] (oral route, male mouse, mg of compound, listed as N-acetyltaurinate of potassium), 8170 mg/kg. Moreover, the “neuro-muscular activity in six tests” value in data set [2] is “neuro-muscular activity has been demonstrated”. Further, in [3] (dose not stated, listed as N-acetyl-taurinate of potassium), the motive agitation result was “slight increase”. In addition, in data set [4] (setting [16]), the amphetaminic excitation result was “reduction”. Moreover, the “investigation behaviour / exploratory activity” value in [5] (setting [16]) is on record as “increase in the investigation behaviour in the mouse, not proportional to the dose”.

For `CC(=O)NCCS(=O)(=O)O` [Example 3, N-acetyl-taurinate of lithium], the “acute toxicity compared with that of lithium carbonate” value in [1] (male mice, intraperitoneal and oral routes) is reported as “clearly reduced acute toxicity”. Besides, the LD50 in data set [1] (mouse, in vivo, ip, LD50) turned out to be 3880 mg/kg; in [1] (mouse, in vivo, ip, LD50 in the male mouse, intraperitoneal route) it was 155 mg/kg; in data set [1] (mouse, in vivo, po, LD50), 6630 mg/kg; in data set [1] (mouse, in vivo, po, LD50 in the male mouse) it was 266 mg/kg. In addition, the minimum lethal dose in data set [6] was 204 mg of lithium. In addition, the “motility in free condition” value in data set [3] is on record as “very clear increase”. For the same compound, the motive agitation entry in data set [3] (dose not stated, listed as N-acetyl-taurinate of lithium) is “increase”. In addition, in [4] (setting [17]), the amphetaminic excitation entry is listed as “increase”. In addition, the “stability of the mood” value in data set [7] is reported as “same stability of the mood”. For the same compound, in data set [8] (with 30 mg/kg IP dextrorotatory amphetamine), the “hypothermia after simultaneous injection of amphetamine” value is “completely eliminated”. Besides, the “hypothermia / reduction in the rectal temperature” value in data set [9] (setting [17]) is “significant hypothermia”. The “investigation behaviour / exploratory activity” value in data set [5] (setting [17]) is “very clear increase”. Further, in data set [10] (100 mg/Kg per os, between the 75th and the 90th minute), the “potentiation of the morphinic agitation” value is 45%. Further, the “effect type in the morphinic agitation test” value (from here on “effect type”) in data set [10] (listed as lithium acetyltaurinate) is “biphasic effect”. For the same compound, the “effect on the agitation caused by morphine sulphate” value in data set [10] (stronger doses (500 and 2500 mg/Kg) per os) was “antagonistic effect”. Besides, the “toxicity with respect to lithium carbonate (acute and chronic renal)” value in data set [11] (conclusion from acute and chronic toxicity studies) is on record as “less toxic”. In [11] (rat, in vivo), the “tubular renal lesions thirty days after the treatment has stopped” value is reported as “a reversion of the lesions is noted in all the animals”. In addition, the “appetite- and thirst-depressant actions” value in data set [12] was “very clear appetite- and thirst-depressant actions”. For the same compound, the “taking of food and drink consumed” value in [12] is recorded as “very substantial reduction”.

Regarding `CC(=O)NCCS(=O)(=O)O` [Example 4, N-acetyl-taurinate of magnesium], the LD50 in [1] (intraperitoneal route, male mouse, mg of compound, listed as N-acetyltaurinate of magnesium) is reported as 1709 mg/kg; in data set [1] (oral route, male mouse, mg of compound, listed as N-acetyltaurinate of magnesium) it was 17400 mg/kg. The motive agitation result is on record as “very clear reduction” in data set [3] (high dose (200 mg/kg)) and “increase” in [3] (low dose (100 mg/kg), listed as N-acetyl-taurinate of magnesium, 100 mg/kg). In addition, in [4] (listed as N-acetyl-taurinate of magnesium), the amphetaminic excitation entry is recorded as “reduction”. The “reduction of rectal temperature after simultaneous injection of amphetamine” value in [8] (with amphetamine, 1 hour after the injection) is listed as “completely eliminated”. For the same compound, in data set [9] (2 hours after the injection), the “reduction in the maximum rectal temperature” value is given as “very considerable reduction”. In addition, in [13] (venous perfusion 1 g first ten days with 1.5 g/day per os), the “general state of the patient” value is recorded as “complete recovery of the general state”. For the same compound, in [13] (verified with a recession of 13 months), the critical phenomena entry was “disappearance of the critical phenomena”. Moreover, in data set [10] (listed as Mg), the “effect type” value is “mono-phasic effect, antagonistic to the morphinic agitation even in small doses”.

As to `CC(=O)NCCS(=O)(=O)O` [Example 5, N-acetyl-taurinate of calcium], the LD50 in [1] (intraperitoneal route, male mouse, mg of compound, listed as N-acetyltaurinate of calcium) worked out at 1604 mg/kg. Also, in data set [1] (oral route, male mouse, mg of compound, listed as N-acetyltaurinate of calcium), the LD50 came out at 13230 mg/kg. In addition, in data set [3] (low dose (100 mg/kg), listed as N-acetyltaurinate of calcium, 100 mg/kg), the motive agitation entry is on record as “reduction”. Further, in [4] (setting [18]), the amphetaminic excitation entry is “does not modify”. Also, in [14] (1.5 g daily oral), the alcoholic weaning result is recorded as “upkept”, the intellectual efficiency entry was “improved” and the tremblings result was “considerably reduced”. The “effect on attack of mental aberration with convulsions” value in data set [14] (venous perfusion 1 g per hour for three hours) is listed as “sedation of the attack with a state of euphoria”. Also, the hyperthermia result in data set [8] (amphetamine interaction) is listed as “does not modify”. Besides, the “hypothermia / reduction in the rectal temperature” value in data set [9] (setting [18]) was “significant reduction”. Also, the “investigation behaviour / exploratory activity” value in [5] (setting [18]) is “increase”. Moreover, in data set [10] (listed as Ca), the “effect type” value is “mono-phasic effect, antagonistic to the morphinic agitation even in small doses”.

In the case of `O=C(O)O` [Lithium carbonate, reference compound], the median lethal dose (LD50) was 88 mg/kg in data set [1] (mouse, in vivo, ip) and 162 mg/kg in [1] (mouse, in vivo, po). The same compound gave a lithemia in [15] (1 g/day) of no more than 0.5 meq/liter. Moreover, the signs of intolerance entry in [15] (increased dose) was “permanent tremblings: nauseas, vomitings, hypotension”. In addition, the “stability of the mood” value in [15] was “a stability of the mood is obtained”. Further, in [11] (rats, 8 and 24 mg/Kg per day of lithium, three months), the “tubular renal lesions (histological study)” value is on record as “tubular renal lesions appear in all the treated animals”. In [11] (rats, dose of 24 mg of lithium per Kg, 30 days after stop), the “tubular renal lesions thirty days after the treatment has stopped” value was “the lesions persist”.

Take `O=C(O)CC(O)(CC(=O)O)C(=O)O` [lithium citrate, reference compound]: the minimum lethal dose in [6] is given as 42 mg of lithium.

Consider `O=C([O-])[C@H](O)[C@@H](O)[C@H](O)[C@H](O)CO.[Li+]` [lithium gluconate, reference compound], for which the “effect on the morphinic agitation relative to lithium acetyltaurinate at 100 mg/Kg” value in data set [10] (potentiation in small doses) is reported as “comparable”.

Consider `NCCS(=O)(=O)O` [taurine], for which, in data set [2], the “neuro-muscular activity in six tests” value is “without any activity”. Also, the “effect type” value in data set [10] is “no effect”.
